Measurements as given in US20110104052A1, “METHODS OF SYNTHESIS AND USE OF CHEMOSPHERES” (THE JOHNS HOPKINS UNIVERSITY, priority 2007, published 2011).

How the values were obtained:
[1] = test system: tumors growing within the liver; conditions: rabbit model for liver cancer; cited from earlier work
[2] = Loading of doxorubicin into liposome polymer matrices; format: physicochemical; conditions: polymer/lipid:drug ratio approximately at least 50:1, mol/mol
Description: The spheres that were subjected to ultrafiltration or column washes were stored for a variable amount of time in a minimal amount of 3 M sucrose, 750 mM Histidine HCl to maintain hydration at 20° C. and 5° C. Following storage the loading efficiency of doxorubicin into the spheres was assessed (table 1). For drug loading a procedure that could easily be implement in the pharmacy was employed. Specifically a water bath or dry heat block was allowed to equilibrate at 58° C. (55°-60° C.). For each 1 mL packed volume of microspheres, 50 mg of lyophilized doxorubicin (for storage lactose and parahydroxybenzoate may be added) in a solution of 8 mL was prepared. This solution was then added to the equilibrated heating source for 10 min. Next a 2 mL concentrated solution of sodium carbonate was injected into the microsphere solution. The 2 mL of microspheres and 8 mL of doxorubicin were then combined creating a solution with pH of 7 (this step should be done within 2 minutes of adding sodium carbonate to the microspheres). The mixture should be shaken vigorously and allowed to sit for at least 10 minutes in the heat block or water bath and then brought to room temperature. After this period the spheres can be stored up to 10 hours at 25° C. and for 7 days at 2° C.-8° C. […]

| added doxorubicin that becomes vesicle entrapped as doxorubicin-citrate [2] | Structure (SMILES) | effect of bolus injection on non-tumor tissue [1] |
| --- | --- | --- |
|  | O=C(O)C(=O)CBr [3-bromopyruvate] | damages surrounding liver tissue |
| greater than 90% | COc1cccc2c1C(=O)c1c(O)c3c(c(O)c1C2=O)C[C@@](O)(C(=O)CO)C[C@@H]3O[C@H]1C[C@H](N)[C@H](O)[C@H](C)O1 [doxorubicin] |  |
